Test results published in patent publication US10406383B2, “Apparatus for treatment of dermatological conditions” (CAREWEAR CORP., priority 2004, dated 2019).
Marks after values point to notes of the source that are not given here.

What was measured:
[1] = test system: RARα expression in epidermal keratinocytes; assay: Seven-day patch test, RARα immunohistochemistry; assay type: in vivo, human; conditions: patch test under occlusion
From the text: (§1) The standard four-day patch test assay was extended to a seven-day period to examine the effect of the Topical 1 formulation under occlusion or delivered by ultrasound on the induction of fibrillin expression as a mechanism by which clinical signs of photoageing may be improved.
(§2) Ageing can also be monitored by examination of other molecules within the skin. Previous work has identified alterations in the expression of the enzyme matrix metalloproteinase 1 (MMP-1; essential for extracellular matrix remodelling)^3 and in the nuclear retinoid receptor retinoic acid receptor α (RARα; necessary for modulating the effects of vitamin A and its derivatives)^4. Two molecular chaperones were assessed to identify pathways for eliminating abnormal proteins; these were heat shock protein-72 (HSP72)^5 and the extracellular chaperone, clusterin^6.
(§3) Six healthy but photoaged female volunteers were recruited (age range 52-79 years). […]
(§4) A number of extracellular matrix (ECM) molecules known to be reduced in photoaged skin were assayed by immunohistochemistry to detail the potential effects of the Topical 1 formulation and its method of delivery. […] Also assessed were the number of epidermal keratinocytes expressing MMP-1 and RARα. […]
(§5) For cell-associated staining, the numbers of positive epidermal keratinocytes were assessed per high powered field, and the average score calculated for each site/test area. […]

[2] = test system: fibrillin-rich microfibrils proximal to the dermal-epidermal junction (DEJ); assay: Seven-day patch test, fibrillin-1 immunohistochemistry; assay type: in vivo, human; conditions: patch test under occlusion
From the text: as §1
Fibrillin is a major constituent of the elastin network in the papillary dermis and plays an important role in securing the epidermis to the underlying dermis. Topical application of all-trans retinoic acid (t-RA) as a positive control ameliorates the clinical signs of photoageing.
as §3, §4
Sections were randomised, blinded and examined on a Nikon OPTIPHOT microscope (Tokyo, Japan). For assessment of ECM components, the degree of immunostaining was assessed on a 5 point semi-quantitative scale where 0=no staining and 4=maximal staining. […] The degree of immunostaining was scored for three high power fields per section, and the average score calculated for each site/test area. […]

[3] = Erythema and skin tolerability observations during the trial; assay type: in vivo, human; conditions: patch test protocol
Procedure: Six healthy but photoaged female volunteers were recruited (age range 52-79 years). Test substances were applied separately under standard 6 mm diameter Finn chambers to the extensor aspect of the forearm: these were Topical 1 formulation (20 μl/chamber), vehicle base (20 μl/chamber) and 0.025% all-trans RA (Retin-A® cream, Janssen-Cilag Ltd., 20 μl/chamber). In addition, a baseline untreated biopsy was taken as a reference point. Formulations were applied to clean skin on days 1 and 4 of the assay. All-trans RA was applied to an untreated site on day 4. On day 8, Finn chambers were removed and 3 mm punch biopsies were obtained under 1% lignocaine anaesthesia from each of the test site. Biopsies were embedded in OCT compound (Tissue-Tek®, Miles, Ind., USA) and snap frozen in liquid nitrogen. Biopsy sites were sutured with 1×4/o ethilon and subjects instructed to return between 7-10 days for suture removal.
Ten healthy but photoaged volunteers were recruited (men: 2; female: 8; age range 40-79 years). Topical 1 formulation was applied to extensor forearms alone and with the aid of an ultrasound device (Duo Son™ unit, Orthosonics, Devon UK). Low frequency (45 kHz, 100 mW/cm^2, continuous) and high frequency (1 MHz, 1 W/cm^2 pulsed average, pulsed 20% cycle) were applied simultaneously for a period of ten minutes, during which time the ultrasound delivery head was moved over the skin. […]

[4] = test system: MMP-1 expression in epidermal keratinocytes; assay: Seven-day patch test, MMP-1 immunohistochemistry; assay type: in vivo, human; conditions: patch test under occlusion
From the text: as §1, §2, §3, §4, §5

[5] = test system: HSP72 expression in the epidermis; assay: Seven-day patch test, HSP72 immunohistochemistry; assay type: in vivo, human; conditions: patch test under occlusion
From the text: as §1, §2, §3, §4, §5

HSP70 mRNA = conditions: rats, aspirin 100 mg/kg intraperitoneally 60 min before 37° C. for 30 min; cited from earlier work
[6] = positive epidermal keratinocytes per high powered field

Structure (SMILES) | effect on RARα expression in epidermal keratinocytes ([1]; result in words) | RARα staining Mean [1, 6] | Fibrillin-1 staining Mean ([2]; photoaged forearm, biopsy day 8, 5 point scale 0=no staining, 4=maximal staining, p > 0.05) | volunteers with fibrillin-1 deposition proximal to the DEJ ([2]; six volunteers) | Erythema at the site of application [3] | effect on MMP-1 expression in epidermal keratinocytes ([4]; result in words) | MMP-1 staining Mean ([4]; positive epidermal keratinocytes per high powered field, p > 0.05) | effect on expression of epidermal HSP72 ([5]; result in words) | HSP72 staining Mean [5, 6] | levels of HSP70 mRNA relative to heat treatment alone (HSP70 mRNA)
CC1=C(/C=C/C(C)=C/C=C/C(C)=C/C(=O)O)C(C)(C)CCC1 [All-trans RA, all-trans retinoic acid] | significantly reduced RARα expression in epidermal keratinocytes | 6.0463 | 1.8241 | 3/6 | marked erythema | reduced MMP-1 expression in epidermal keratinocytes, although this did not reach significance | 5.3333 | significantly increased the expression of epidermal HSP72 | 77.03** | –
CC(=O)Oc1ccccc1C(=O)O [aspirin, acetylsalicyclic acid] | – | – | – | – | – | – | – | – | – | 3 to 4 fold
